# Laboratory results: patent US20230085307A1, “PYRIDAZINONE COMPOUND AND HERBICIDE” (NISSAN CHEMICAL CORPORATION, priority 2019, published 2023)
# What was measured:
# lambsquarters [1] = assay: Test Example 5: herbicidal effect by foliage application, plastic box (Table 20, symbol O); assay type: in vivo, lambsquarters (Chenopodium album); settings: foliage application, AAH 320 g/ha, three weeks after application
# In short: (§1)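 Plants sown in sterilized diluvial soil and grown 14 days in a greenhouse at 25° C to 30° C, then sprayed on the foliage with the compound's emulsion diluted in water to a predetermined herbicide amount. Injury to weeds and crops scored three weeks after application on a visual rating scale.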
# velvetleaf [2] = assay: Test Example 4: herbicidal effect by soil treatment (Table 19, symbol M); assay type: in vivo, velvetleaf (Abutilon theophrasti); settings: AAH 320 g/ha
# In short: (§2)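 Three weeks of greenhouse growth at 25° C. to 30° C. followed a uniform surface spray of water-diluted emulsion at a predetermined herbicide amount. Seeds had been sown beforehand under about 1.5 cm of sterilized diluvial soil. Grading followed criteria set out in an earlier test.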
# green foxtail [3] = assay: Test Example 4: herbicidal effect by soil treatment (Table 19, symbol G); assay type: in vivo, green foxtail (Setaria viridis); settings: AAH 320 g/ha
# In short: as §2
# oval-leafed pondweed = assay: Test Example 1: herbicidal activity, application before weed generation under submerged conditions (Table 16, symbol C); assay type: in vivo, oval-leafed pondweed (Monochoria vaginalis); settings: 320 g/ha applied herbicide
# In short: (§3)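 Emulsion formulation, water-diluted to set dose, was put onto the flooded surface (4 cm depth, alluvial soil) the same day weeds were sown and 2.5-leaf rice transplanted. After 3 weeks at 25-30 °C under glass, each species was rated 0 (≤5% kill) to 5 (≥90% kill).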
# barnyard grass [4] = assay: Test Example 4: herbicidal effect by soil treatment (Table 19, symbol H); assay type: in vivo, barnyard grass (Echinochloa crus-galli); settings: AAH 320 g/ha
# In short: as §2
# Chinese sprangletop = assay: Test Example 3: herbicidal effect by foliage application, Wagner pot (Table 18, symbol D); assay type: in vivo, chinese sprangletop (Leptochloa chinensis); settings: 320 g/ha
# In short: (§4)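 Plants were sown in alluvial soil held under 0.1–0.5 cm standing water and grown 14 days in a greenhouse at 25–30 °C. An emulsifiable formulation, water-diluted to the set dose, was then sprayed onto the foliage, and effects were scored three weeks later using previously defined criteria.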
# windgrass [5] = assay: Test Example 5: herbicidal effect by foliage application, plastic box (Table 20, symbol L); assay type: in vivo, windgrass (Apera spica-venti); settings: foliage application, AAH 320 g/ha, three weeks after application
# In short: as §1
# barnyard grass [6] = assay: Test Example 5: herbicidal effect by foliage application, plastic box (Table 20, symbol H); assay type: in vivo, barnyard grass (Echinochloa crus-galli); settings: foliage application, AAH 320 g/ha, three weeks after application
# In short: as §1
# velvetleaf [7] = assay: Test Example 5: herbicidal effect by foliage application, plastic box (Table 20, symbol M); assay type: in vivo, velvetleaf (Abutilon theophrasti); settings: foliage application, AAH 320 g/ha, three weeks after application
# In short: as §1
# persian speedwell [8] = assay: Test Example 4: herbicidal effect by soil treatment (Table 19, symbol R); assay type: in vivo, Persian speedwell (Veronica persica); settings: AAH 320 g/ha
# In short: as §2
# wild oat [9] = assay: Test Example 4: herbicidal effect by soil treatment (Table 19, symbol I); assay type: in vivo, wild oat (Avena fatua); settings: AAH 320 g/ha
# In short: as §2
# southern crabgrass [10] = assay: Test Example 5: herbicidal effect by foliage application, plastic box (Table 20, symbol F); assay type: in vivo, southern crabgrass (Digitaria ciliaris); settings: foliage application, AAH 320 g/ha, three weeks after application
# In short: as §1
# lambsquarters [11] = assay: Test Example 4: herbicidal effect by soil treatment (Table 19, symbol O); assay type: in vivo, lambsquarters (Chenopodium album); settings: AAH 320 g/ha
# In short: as §2
# chickweed [12] = assay: Test Example 5: herbicidal effect by foliage application, plastic box (Table 20, symbol P); assay type: in vivo, common chickweed (Stellaria media); settings: foliage application, AAH 320 g/ha, three weeks after application
# In short: as §1
# green foxtail [13] = assay: Test Example 5: herbicidal effect by foliage application, plastic box (Table 20, symbol G); assay type: in vivo, green foxtail (Setaria viridis); settings: foliage application, AAH 320 g/ha, three weeks after application
# In short: as §1
# southern crabgrass [14] = assay: Test Example 4: herbicidal effect by soil treatment (Table 19, symbol F); assay type: in vivo, southern crabgrass (Digitaria ciliaris); settings: AAH 320 g/ha
# In short: as §2
# blackgrass [15] = assay: Test Example 5: herbicidal effect by foliage application, plastic box (Table 20, symbol J); assay type: in vivo, blackgrass (Alopecurus myosuroides); settings: foliage application, AAH 320 g/ha, three weeks after application
# In short: as §1
# windgrass [16] = assay: Test Example 4: herbicidal effect by soil treatment (Table 19, symbol L); assay type: in vivo, windgrass (Apera spica-venti); settings: AAH 320 g/ha
# In short: as §2
# Japanese bulrush = assay: Test Example 1: herbicidal activity, application before weed generation under submerged conditions (Table 16, symbol B); assay type: in vivo, Japanese bulrush (Schoenoplectus juncoides); settings: 320 g/ha applied herbicide
# In short: as §3
# redroot pigweed [17] = assay: Test Example 4: herbicidal effect by soil treatment (Table 19, symbol N); assay type: in vivo, redroot pigweed (Amaranthus retroflexus); settings: AAH 320 g/ha
# In short: as §2
# Italian ryegrass [18] = assay: Test Example 4: herbicidal effect by soil treatment (Table 19, symbol K); assay type: in vivo, Italian ryegrass (Lolium multiflorum); settings: AAH 320 g/ha
# In short: as §2
# barnyard grass [19] = assay: Test Example 3: herbicidal effect by foliage application, Wagner pot (Table 18, symbol H); assay type: in vivo, barnyard grass (Echinochloa crus-galli); settings: 320 g/ha
# In short: as §4
# blackgrass [20] = assay: Test Example 4: herbicidal effect by soil treatment (Table 19, symbol J); assay type: in vivo, blackgrass (Alopecurus myosuroides); settings: AAH 320 g/ha
# In short: as §2
# Italian ryegrass [21] = assay: Test Example 5: herbicidal effect by foliage application, plastic box (Table 20, symbol K); assay type: in vivo, Italian ryegrass (Lolium multiflorum); settings: foliage application, AAH 320 g/ha, three weeks after application
# In short: as §1
# redroot pigweed [22] = assay: Test Example 5: herbicidal effect by foliage application, plastic box (Table 20, symbol N); assay type: in vivo, redroot pigweed (Amaranthus retroflexus); settings: foliage application, AAH 320 g/ha, three weeks after application
# In short: as §1
# wild oat [23] = assay: Test Example 5: herbicidal effect by foliage application, plastic box (Table 20, symbol I); assay type: in vivo, wild oat (Avena fatua); settings: foliage application, AAH 320 g/ha, three weeks after application
# In short: as §1
# chickweed [24] = assay: Test Example 4: herbicidal effect by soil treatment (Table 19, symbol P); assay type: in vivo, common chickweed (Stellaria media); settings: AAH 320 g/ha
# In short: as §2
# late watergrass = assay: Test Example 1: herbicidal activity, application before weed generation under submerged conditions (Table 16, symbol A); assay type: in vivo, late watergrass (Echinochloa oryzicola); settings: 320 g/ha applied herbicide
# In short: as §3
# persian speedwell [25] = assay: Test Example 5: herbicidal effect by foliage application, plastic box (Table 20, symbol R); assay type: in vivo, Persian speedwell (Veronica persica); settings: foliage application, AAH 320 g/ha, three weeks after application
# In short: as §1
compound,measurement,setting,value
CC(=O)COc1ccc(-c2sc3ccccc3c2-c2c(O)c(C)nn(C)c2=O)cc1 [1-143],"O: lambsquarters, herbicidal effect",lambsquarters [1],4 (Herbicidal rate of 70% or more and less than 90%)
same,"M: velvetleaf, herbicidal effect rating",velvetleaf [2],4 (Herbicidal rate of 70% or more and less than 90%)
same,"G: green foxtail, herbicidal effect rating",green foxtail [3],4 (Herbicidal rate of 70% or more and less than 90%)
same,Herbicidal effect on C: oval-leafed pondweed (grade 0-5),oval-leafed pondweed,0 (Herbicidal rate of 5% or less (almost no effect))
same,"H: barnyard grass, herbicidal effect rating",barnyard grass [4],4 (Herbicidal rate of 70% or more and less than 90%)
same,"herbicidal effect on D (Chinese sprangletop), rating 0-5",Chinese sprangletop,0 (Herbicidal rate of 5% or less (almost no effect))
same,"L: windgrass, herbicidal effect",windgrass [5],4 (Herbicidal rate of 70% or more and less than 90%)
same,"H: barnyard grass, herbicidal effect",barnyard grass [6],4 (Herbicidal rate of 70% or more and less than 90%)
same,"M: velvetleaf, herbicidal effect",velvetleaf [7],5 (Herbicidal rate of 90% or more (almost completely withered))
same,"R: persian speedwell, herbicidal effect rating",persian speedwell [8],3 (Herbicidal rate of 40% or more and less than 70%)
same,"I: wild oat, herbicidal effect rating",wild oat [9],0 (Herbicidal rate of 5% or less (almost no effect))
same,"F: southern crabgrass, herbicidal effect",southern crabgrass [10],3 (Herbicidal rate of 40% or more and less than 70%)
same,"O: lambsquarters, herbicidal effect rating",lambsquarters [11],5 (Herbicidal rate of 90% or more (almost completely withered))
same,"P: chickweed, herbicidal effect",chickweed [12],5 (Herbicidal rate of 90% or more (almost completely withered))
same,"G: green foxtail, herbicidal effect",green foxtail [13],5 (Herbicidal rate of 90% or more (almost completely withered))
same,"F: southern crabgrass, herbicidal effect rating",southern crabgrass [14],3 (Herbicidal rate of 40% or more and less than 70%)
same,"J: blackgrass, herbicidal effect",blackgrass [15],0 (Herbicidal rate of 5% or less (almost no effect))
same,"L: windgrass, herbicidal effect rating",windgrass [16],0 (Herbicidal rate of 5% or less (almost no effect))
same,Herbicidal effect on B: Japanese bulrush (grade 0-5),Japanese bulrush,0 (Herbicidal rate of 5% or less (almost no effect))
same,"N: redroot pigweed, herbicidal effect rating",redroot pigweed [17],4 (Herbicidal rate of 70% or more and less than 90%)
same,"K: Italian ryegrass, herbicidal effect rating",Italian ryegrass [18],0 (Herbicidal rate of 5% or less (almost no effect))
same,"herbicidal effect on H (barnyard grass), rating 0-5",barnyard grass [19],5 (Herbicidal rate of 90% or more (almost completely withered))
same,"J: blackgrass, herbicidal effect rating",blackgrass [20],0 (Herbicidal rate of 5% or less (almost no effect))
same,"K: Italian ryegrass, herbicidal effect",Italian ryegrass [21],4 (Herbicidal rate of 70% or more and less than 90%)
same,"N: redroot pigweed, herbicidal effect",redroot pigweed [22],4 (Herbicidal rate of 70% or more and less than 90%)
same,"I: wild oat, herbicidal effect",wild oat [23],0 (Herbicidal rate of 5% or less (almost no effect))
same,"P: chickweed, herbicidal effect rating",chickweed [24],0 (Herbicidal rate of 5% or less (almost no effect))
same,Herbicidal effect on A: late watergrass (grade 0-5),late watergrass,3 (Herbicidal rate of 40% or more and less than 70%)
same,"R: persian speedwell, herbicidal effect",persian speedwell [25],5 (Herbicidal rate of 90% or more (almost completely withered))
